The supplement of paper PMC10307832

Compound: COC1=CC=C(C=C1)COC2=C(C=C(C=C2)CC3=CN=C(N=C3N)N)OC [GW-2580]
Assay: relative viability (nuclei count vs DMSO), 5 days (fraction); higher = more cells survive
Outline: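 Five library-drug doses, separated by factors of √10, were pinned into 1536-well plates holding lung cancer cell lines after an overnight stay at 37 °C. Cells were fixed, permeabilised and Hoechst-stained in one step after 5 days without medium change, then imaged at 4×. Viability compares treated-well with vehicle-well nuclei, counted in MetaXpress, as a median across plates. Passing plates had control CV below 25% and at least one doubling.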

Cell Line: UMC-11
- relative viability (0.08 µM): 1.05
- relative viability (0.8 µM): 1.11
- relative viability (2.53 µM): 0.923
- relative viability (8 µM): 1.2
